The values below come from patent US20180021323A1, “FLIP - A SELECTIVE MOLECULAR TARGET OF SENESCENT CELLS” (BIOVENTURES, LLC, priority 2015, published 2018).

One series relates to normal (NC) WI38 cells. Nature of the series: Cell viability of normal (NC) WI38 cells, 72 h treatment. It counts as cell-based. The conditions noted are these: for LD50 (NC): normal (NC) WI38 cells, viable cells determined 72 h after treatment. On the procedure: The expression of FLIP in normal (NC) and IR-induced senescent (SC) WI38 cells was determined by Western blot 24 h after they were treated with vehicle (VEH) or Drox (10 μM). […] IR-induced senescent (SC) WI38 cells were treated with vehicle (VEH) or Drox (10 μM) for 6 h and the expression of FLIP mRNA in these cells was determined by qPCR. […] Viable cells were determined 72 h after normal (NC) and IR-induced senescent (SC) WI38 cells were treated with vehicle (VEH) or increasing concentrations of Drox. The data are presented as a percentage of control cells treated with VEH. […] Normal (NC) and IR-induced senescent (SC) WI38 cells were treated with vehicle (VEH), Drox (10 μM), PL (10 μM), and EF-24 (10 μM) for 24 h and the expression of FLIP in these cells was determined by Western blots. […] Viable cells were determined 72 h after normal (NC) and IR-induced senescent (SC) WI38 cells were treated with vehicle (VEH) or increasing concentrations of Drox, PL, and EF-24. LD50 values for these molecules against NC and SC were calculated and presented.

Series [1] deals with IR-induced senescent (SC) WI38 cells. Nature of the series: Cell viability of IR-induced senescent (SC) WI38 cells, 72 h treatment. It counts as cell-based, human. As to conditions: for LD50 (SC): IR-induced senescent (SC) WI38 cells, viable cells determined 72 h after treatment; for killing of IR-induced senescent (SC) WI38 cells (viable cells, % of vehicle control): increasing concentrations, 72 h. Here is the method: (§1) The expression of FLIP in normal (NC) and IR-induced senescent (SC) WI38 cells was determined by Western blot 24 h after they were treated with vehicle (VEH) or Drox (10 μM). Treatment with droxinostat (Drox) down-regulates the expression of FLIP mRNA in IR-induced senescent (SC) WI38 cells (FIG. 3B). IR-induced senescent (SC) WI38 cells were treated with vehicle (VEH) or Drox (10 μM) for 6 h and the expression of FLIP mRNA in these cells was determined by qPCR. […] Viable cells were determined 72 h after normal (NC) and IR-induced senescent (SC) WI38 cells were treated with vehicle (VEH) or increasing concentrations of Drox. The data are presented as a percentage of control cells treated with VEH. Treatment with droxinostat (Drox), piperlongumine (PL) and EF-24 down-regulates the expression of FLIP in IR-induced senescent (SC) WI38 cells (FIG. 3E). Normal (NC) and IR-induced senescent (SC) WI38 cells were treated with vehicle (VEH), Drox (10 μM), PL (10 μM), and EF-24 (10 μM) for 24 h and the expression of FLIP in these cells was determined by Western blots. […] Viable cells were determined 72 h after normal (NC) and IR-induced senescent (SC) WI38 cells were treated with vehicle (VEH) or increasing concentrations of Drox, PL, and EF-24. LD50 values for these molecules against NC and SC were calculated and presented.

The subject of the next series is FLIP. Nature of the series: FLIP protein expression by Western blot in IR-induced senescent WI38 cells. It counts as cell-based, human. The conditions noted are these: 10 μM, 24 h.
Description: Treatment with doxycycoline (DOX) dose-dependently induces FLIP-shRNA expression in WI38 cell line after the cells were stably transfected with a plasmid containing FLIP-shRNA and red fluorescent protein (RFP) genes (FIG. 2A). Induction of FLIP-shRNA by doxycycoline down-regulates FLIP expression in IR-induced senescent WI38 cells stably transfected with FLIP-shRNA but not in vector transfected cells (FIG. 2B).
as §1
For orientation: A western blot detects proteins with antibodies after separation by electrophoresis.

Another series deals with FLIP mRNA. Briefly: FLIP mRNA expression by qPCR in IR-induced senescent WI38 cells. It counts as cell-based, human. The conditions noted are these: 10 μM, 6 h. Here is the method:
as §1
For orientation: Quantitative PCR measures a nucleic acid by following its amplification.

Regarding `Cc1cc(Cl)ccc1OCCCC(=O)NO` [Droxinostat, 4-(4-chloro-2-methylphenoxy)-N-hydroxybutanamide], in the series on normal (NC) WI38 cells (increasing concentrations, 72 h), the “effect on normal (NC) WI38 cells (viable cells, % of vehicle control)” value is given as “minimal effect”. For the same compound, the “LD50 (NC)” value in the series on normal (NC) WI38 cells amounted to 39.58 µM. Besides, in series [1], the “LD50 (SC)” value is 8.26 µM and the “killing of IR-induced senescent (SC) WI38 cells (viable cells, % of vehicle control)” value (“killing … (viable cells, % of vehicle control)” below) is listed as “selectively kill”. In the series with FLIP, the “expression of FLIP (Western blot, FIG. 3A)” value is on record as “down-regulated” and the “expression of FLIP (Western blot, FIG. 3E)” value is on record as “down-regulates”. The “expression of FLIP mRNA (qPCR, FIG. 3B)” value in the series on FLIP mRNA is given as “down-regulates”.
Turning to `O=C1/C(=C/c2ccccc2F)CNC/C1=C\c1ccccc1F` [EF-24], the “LD50 (NC)” value in the series with normal (NC) WI38 cells stood at 6.08 µM. Also, in series [1], the “LD50 (SC)” value was found to be 1.05 µM and the “killing … (viable cells, % of vehicle control)” value is “selectively kill”. Also, the “expression of FLIP (Western blot, FIG. 3E)” value in the series on FLIP is recorded as “down-regulates”.
For the compound `COc1cc(/C=C/C(=O)N2CCC=CC2=O)cc(OC)c1OC` [Piperlongumine, piperlongumine], the “LD50 (NC)” value with normal (NC) WI38 cells worked out at 24.25 µM. In addition, in series [1], the “LD50 (SC)” value was 7.05 µM and the “killing … (viable cells, % of vehicle control)” value is listed as “selectively kill”. Moreover, the “expression of FLIP (Western blot, FIG. 3E)” value with FLIP is “down-regulates”.
